Measured values as given in patent publication US6737383B1, “Herbicidal oxadiazolidines” (priority 1999, dated 2004).

Columns and labels:
[1] = system: bedstraw; test: Test B pre/postemergence bedstraw; type: in vivo, Galium aparine
In short: (§1)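 Herbicidal effect was estimated by eye on a ten-point control scale after plants spent twelve to sixteen days in a greenhouse following soil or foliar treatment. Foliar sprays targeted plants at one to four leaves; all doses were formulated in a non-phytotoxic solvent with surfactant.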

[2] = system: surinam grass; test: Test B pre/postemergence surinam grass; type: in vivo, Brachiaria decumbens
In short: as §1

[3] = system: cocklebur; test: Test B pre/postemergence cocklebur; type: in vivo, Xanthium strumarium
In short: as §1

[4] = system: corn; test: Test B pre/postemergence corn; type: in vivo, Zea mays
In short: as §1

[5] = system: crabgrass; test: Test B pre/postemergence crabgrass; type: in vivo, Digitaria sanguinalis
In short: as §1

[6] = system: giant foxtail; test: Test B pre/postemergence giant foxtail; type: in vivo, Setaria faberii
In short: as §1

[7] = system: morningglory; test: Test B pre/postemergence morningglory; type: in vivo, Ipomoea hederacea
In short: as §1

[8] = system: pigweed; test: Test B pre/postemergence pigweed; type: in vivo, Amaranthus retroflexus
In short: as §1

[9] = system: rape; test: Test B pre/postemergence rape; type: in vivo, Brassica napus
In short: as §1

[10] = system: soybean; test: Test B pre/postemergence soybean; type: in vivo, Glycine max
In short: as §1

[11] = system: sugar beet; test: Test B pre/postemergence sugar beet; type: in vivo, Beta vulgaris
In short: as §1

[12] = system: velvetleaf; test: Test B pre/postemergence velvetleaf; type: in vivo, Abutilon theophrasti
In short: as §1

[13] = system: wheat; test: Test B pre/postemergence wheat; type: in vivo, Triticum aestivum
In short: as §1

[14] = system: purple nutsedge; test: Test B pre/postemergence purple nutsedge; type: in vivo, Cyperus rotundus
In short: as §1

[15] = system: duck salad; test: Test B flood test duck salad; type: in vivo, Heteranthera limosa; settings: for Plant response rating, Ducksalad (0 to 10 scale, 0 is no effect, 10 is complete control): Rate 62 g/ha, Pre-emergence; for Plant response rating, Ducksalad (0 to 10 scale, 0 is no effect, 10 is complete control) / Ducksalad plant response rating (0 to 10 scale, 0 is no effect, 10 is complete control): flood test species, visual evaluation after twelve to sixteen days; for Ducksalad plant response rating (0 to 10 scale, 0 is no effect, 10 is complete control): Rate 125 g/ha, under heading Pre-emergence
In short: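 Read-out is a visual response score from 0 (no effect) to 10 (complete control), assigned by comparison with untreated controls. Treatment was applied at the 2-leaf stage, and plants stayed in the greenhouse for twelve to sixteen days before scoring.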

[16] = Preemergence, Rate 62 g/ha, scale 0 to 10 (0 no effect, 10 complete control)
[17] = Preemergence, Rate 125 g/ha, scale of 0 to 10 where 0 is no effect and 10 is complete control
[18] = Preemergence, Rate 250 g/ha, scale 0 to 10 (0 no effect, 10 complete control)
[19] = Preemergence, Rate 500 g/ha, scale of 0 to 10 where 0 is no effect and 10 is complete control
[20] = Postemergence, Rate 62 g/ha, scale 0 to 10, 0 is no effect, 10 is complete control
[21] = Postemergence, Rate 125 g/ha, scale of 0 to 10 where 0 is no effect and 10 is complete control
[22] = Postemergence, Rate 250 g/ha, scale of 0 to 10, 0 is no effect, 10 is complete control
[23] = Postemergence, Rate 500 g/ha, scale of 0 to 10 where 0 is no effect and 10 is complete control
[24] = Rate 250 g/ha, Pre-emergence (flood test species), scale 0 to 10, 0 is no effect, 10 is complete control
[25] = Rate 500 g/ha, Pre-emergence section of Table B, 0 to 10 scale (0 no effect, 10 complete control)

CC(C)N(C(=O)n1oc(=O)n(CSC#N)c1=O)c1ccc(F)cc1 [Compound 618]
Bedstraw plant response rating [1, 16]: 0
Bedstraw plant response rating [1, 17]: 0
Plant response rating, Bedstraw [1, 18]: 0
Bedstraw plant response rating [1, 19]: 0
Plant response rating, B. signalgrass [2, 20]: 0
Plant response rating, B. signalgrass [2, 21]: 0
B. signalgrass plant response rating [2, 22]: 0
Plant response rating, B. signalgrass [2, 23]: 0
B. signalgrass plant response rating [2, 16]: 0
B. signalgrass plant response rating [2, 17]: 0
Plant response rating, B. signalgrass [2, 18]: 0
B. signalgrass plant response rating [2, 19]: 0
Plant response rating, Cocklebur [3, 20]: 0
Cocklebur plant response rating [3, 22]: 0
Plant response rating, Cocklebur [3, 23]: 0
Cocklebur plant response rating [3, 16]: 0
Cocklebur plant response rating [3, 17]: 0
Plant response rating, Cocklebur [3, 19]: 0
Plant response rating, Corn [4, 20]: 0
Plant response rating, Corn [4, 21]: 0
Corn plant response rating [4, 22]: 0
Plant response rating, Corn [4, 23]: 0
Corn plant response rating [4, 16]: 0
Corn plant response rating [4, 17]: 0
Plant response rating, Corn [4, 18]: 0
Plant response rating, Corn [4, 19]: 0
Plant response rating, Crabgrass [5, 20]: 0
Plant response rating, Crabgrass [5, 21]: 0
Crabgrass plant response rating [5, 22]: 0
Plant response rating, Crabgrass [5, 23]: 0
Crabgrass plant response rating [5, 16]: 0
Crabgrass plant response rating [5, 17]: 0
Plant response rating, Crabgrass [5, 18]: 0
Plant response rating, Crabgrass [5, 19]: 2
Plant response rating, Giant foxtail [6, 20]: 0
Plant response rating, Giant foxtail [6, 21]: 0
Giant foxtail plant response rating [6, 22]: 0
Plant response rating, Giant foxtail [6, 23]: 0
Giant foxtail plant response rating [6, 16]: 2
Giant foxtail plant response rating [6, 17]: 2
Plant response rating, Giant foxtail [6, 18]: 2
Plant response rating, Giant foxtail [6, 19]: 0
Plant response rating, Morningglory [7, 20]: 0
Plant response rating, Morningglory [7, 21]: 0
Morningglory plant response rating [7, 22]: 0
Plant response rating, Morningglory [7, 23]: 0
Morningglory plant response rating [7, 16]: 0
Morningglory plant response rating [7, 17]: 0
Plant response rating, Morningglory [7, 18]: 0
Plant response rating, Morningglory [7, 19]: 0
Plant response rating, Redroot pigweed [8, 20]: 0
Plant response rating, Redroot pigweed [8, 21]: 0
Redroot pigweed plant response rating [8, 22]: 0
Redroot pigweed plant response rating [8, 16]: 0
Redroot pigweed plant response rating [8, 17]: 0
Plant response rating, Redroot pigweed [8, 18]: 0
Plant response rating, Redroot pigweed [8, 19]: 0
Plant response rating, Rape [9, 20]: 0
Plant response rating, Rape [9, 21]: 0
Rape plant response rating [9, 22]: 0
Plant response rating, Rape [9, 23]: 0
Rape plant response rating [9, 16]: 0
Rape plant response rating [9, 17]: 0
Plant response rating, Rape [9, 18]: 0
Plant response rating, Rape [9, 19]: 0
Plant response rating, Soybean [10, 20]: 0
Plant response rating, Soybean [10, 21]: 0
Soybean plant response rating [10, 22]: 6
Soybean plant response rating [10, 16]: 0
Soybean plant response rating [10, 17]: 0
Plant response rating, Soybean [10, 18]: 0
Plant response rating, Soybean [10, 19]: 0
Plant response rating, Sugarbeets [11, 20]: 0
Plant response rating, Sugarbeets [11, 21]: 0
Sugarbeets plant response rating [11, 22]: 0
Sugarbeets plant response rating [11, 16]: 0
Sugarbeets plant response rating [11, 17]: 0
Plant response rating, Sugarbeets [11, 18]: 0
Plant response rating, Sugarbeets [11, 19]: 0
Plant response rating, Velvetleaf [12, 20]: 0
Plant response rating, Velvetleaf [12, 21]: 0
Velvetleaf plant response rating [12, 22]: 0
Velvetleaf plant response rating [12, 16]: 0
Velvetleaf plant response rating [12, 17]: 0
Plant response rating, Velvetleaf [12, 18]: 0
Plant response rating, Velvetleaf [12, 19]: 0
Plant response rating, Wheat [13, 20]: 0
Plant response rating, Wheat [13, 21]: 0
Wheat plant response rating [13, 22]: 0
Wheat plant response rating [13, 16]: 0
Wheat plant response rating [13, 17]: 0
Plant response rating, Wheat [13, 18]: 0
Plant response rating, Wheat [13, 19]: 0
Plant response rating, Nutsedge [14, 20]: 0
Plant response rating, Nutsedge [14, 21]: 0
Nutsedge plant response rating [14, 22]: 0
Nutsedge plant response rating [14, 17]: 0
Plant response rating, Nutsedge [14, 19]: 0
Plant response rating, Ducksalad (0 to 10 scale, 0 is no effect, 10 is complete control) [15]: 0
Ducksalad plant response rating (0 to 10 scale, 0 is no effect, 10 is complete control) [15]: 0
Ducksalad plant response rating [15, 24]: 0
Ducksalad plant response rating [15, 25]: 0

CC(C)N(C(=O)n1oc(=O)n(CNC(=O)c2ccccc2)c1=O)c1ccccc1 [Compound 620]
Plant response rating, Bedstraw [1, 20]: 0
Bedstraw plant response rating [1, 16]: 0
Bedstraw plant response rating [1, 17]: 0
Plant response rating, Bedstraw [1, 18]: 0
Bedstraw plant response rating [1, 19]: 0
Plant response rating, B. signalgrass [2, 20]: 0
Plant response rating, B. signalgrass [2, 21]: 0
B. signalgrass plant response rating [2, 22]: 0
Plant response rating, B. signalgrass [2, 23]: 0
B. signalgrass plant response rating [2, 16]: 0
B. signalgrass plant response rating [2, 17]: 0
Plant response rating, B. signalgrass [2, 18]: 0
B. signalgrass plant response rating [2, 19]: 0
Plant response rating, Cocklebur [3, 20]: 0
Plant response rating, Cocklebur [3, 21]: 0
Cocklebur plant response rating [3, 22]: 0
Plant response rating, Cocklebur [3, 23]: 0
Cocklebur plant response rating [3, 16]: 0
Cocklebur plant response rating [3, 17]: 0
Plant response rating, Cocklebur [3, 18]: 0
Plant response rating, Cocklebur [3, 19]: 0
Plant response rating, Corn [4, 20]: 0
Plant response rating, Corn [4, 21]: 0
Corn plant response rating [4, 22]: 0
Plant response rating, Corn [4, 23]: 0
Corn plant response rating [4, 16]: 0
Corn plant response rating [4, 17]: 0
Plant response rating, Corn [4, 18]: 0
Plant response rating, Corn [4, 19]: 0
Plant response rating, Crabgrass [5, 20]: 1
Plant response rating, Crabgrass [5, 21]: 2
Plant response rating, Crabgrass [5, 23]: 3
Crabgrass plant response rating [5, 16]: 0
Crabgrass plant response rating [5, 17]: 0
Plant response rating, Crabgrass [5, 18]: 0
Plant response rating, Crabgrass [5, 19]: 6
Plant response rating, Giant foxtail [6, 20]: 0
Plant response rating, Giant foxtail [6, 21]: 0
Giant foxtail plant response rating [6, 22]: 0
Giant foxtail plant response rating [6, 16]: 0
Giant foxtail plant response rating [6, 17]: 0
Plant response rating, Giant foxtail [6, 18]: 2
Plant response rating, Giant foxtail [6, 19]: 9
Plant response rating, Morningglory [7, 20]: 2
Morningglory plant response rating [7, 22]: 2
Morningglory plant response rating [7, 16]: 0
Morningglory plant response rating [7, 17]: 0
Plant response rating, Morningglory [7, 18]: 0
Plant response rating, Morningglory [7, 19]: 0
Plant response rating, Redroot pigweed [8, 20]: 0
Plant response rating, Redroot pigweed [8, 21]: 0
Redroot pigweed plant response rating [8, 22]: 0
Redroot pigweed plant response rating [8, 16]: 0
Redroot pigweed plant response rating [8, 17]: 0
Plant response rating, Redroot pigweed [8, 18]: 0
Plant response rating, Redroot pigweed [8, 19]: 0
Plant response rating, Rape [9, 20]: 0
Plant response rating, Rape [9, 21]: 0
Rape plant response rating [9, 22]: 0
Plant response rating, Rape [9, 23]: 0
Rape plant response rating [9, 16]: 0
Rape plant response rating [9, 17]: 0
Plant response rating, Rape [9, 18]: 0
Plant response rating, Rape [9, 19]: 0
Plant response rating, Soybean [10, 20]: 1
Plant response rating, Soybean [10, 21]: 1
Soybean plant response rating [10, 22]: 1
Soybean plant response rating [10, 16]: 0
Soybean plant response rating [10, 17]: 0
Plant response rating, Soybean [10, 18]: 0
Plant response rating, Soybean [10, 19]: 0
Plant response rating, Sugarbeets [11, 20]: 0
Plant response rating, Sugarbeets [11, 21]: 0
Sugarbeets plant response rating [11, 22]: 0
Sugarbeets plant response rating [11, 16]: 0
Sugarbeets plant response rating [11, 17]: 0
Plant response rating, Sugarbeets [11, 18]: 0
Plant response rating, Sugarbeets [11, 19]: 0
Plant response rating, Velvetleaf [12, 20]: 0
Plant response rating, Velvetleaf [12, 21]: 0
Velvetleaf plant response rating [12, 22]: 0
Velvetleaf plant response rating [12, 16]: 0
Velvetleaf plant response rating [12, 17]: 0
Plant response rating, Velvetleaf [12, 18]: 0
Plant response rating, Velvetleaf [12, 19]: 0
Plant response rating, Wheat [13, 20]: 0
Plant response rating, Wheat [13, 21]: 0
Wheat plant response rating [13, 22]: 0
Wheat plant response rating [13, 16]: 0
Wheat plant response rating [13, 17]: 0
Plant response rating, Wheat [13, 18]: 0
Plant response rating, Wheat [13, 19]: 0
Plant response rating, Nutsedge [14, 20]: 0
Plant response rating, Nutsedge [14, 21]: 0
Nutsedge plant response rating [14, 22]: 0
Plant response rating, Nutsedge [14, 23]: 0
Nutsedge plant response rating [14, 16]: 0
Nutsedge plant response rating [14, 17]: 0
Plant response rating, Nutsedge [14, 18]: 0
Plant response rating, Nutsedge [14, 19]: 0
Plant response rating, Ducksalad (0 to 10 scale, 0 is no effect, 10 is complete control) [15]: 0
Ducksalad plant response rating (0 to 10 scale, 0 is no effect, 10 is complete control) [15]: 0
Ducksalad plant response rating [15, 24]: 0
Ducksalad plant response rating [15, 25]: 0
